Experimental data from article PMC10878397, “Development of Potent Dual BET/HDAC Inhibitors via Pharmacophore Merging and Structure-Guided Optimization” (ACS Chemical Biology, 2024).
Values joined by “and” are separate entries in the source; they are usually repeats but may differ in a detail not shown here. Equal values may be shown once.

How the values were obtained:
Assay type in all cases: cell-based
HCC2429 cells = experiment: CellTiter-Glo cell viability assay; conditions: Homo sapiens, HCC2429, 72 h; treatment for 3 days
Description: (§1) PDAC cell line PaTu8988T was obtained from ATCC and cultured in Dulbecco’s modified Eagle’s medium (DMEM) containing 10% FBS, 25 mM glucose, […], 1 mM sodium pyruvate, and 1% penicillin–streptomycin. Nut midline carcinoma cell line HCC2429 was kindly provided by Lead Discovery Center GmbH (Dortmund, Germany) and was cultured in RPMI1640 medium containing 10% FBS, 2 mM L-glutamine, and 1% penicillin–streptomycin. Cell line PaTu8988T was authenticated using the Multiplex human Cell line Authentication Test (MCA) by Multiplexion GmbH, and cell line HCC2429 was authenticated using short tandem repeat (STR) profiling.
(§2) The assays were performed using Promega’s CellTiter-Glo Luminescent Cell Viability Assay kit (Cat. #G7571). First, compounds dissolved in DMSO were printed in 96-well plates (Corning) by using a Tecan D300e digital dispenser. Then, cells were seeded into the compound-printed plates using a Thermo Multidrop reagent dispenser. 72 h later, one volume of diluted CellTiter-Glo reagent (1:4 dilution with PBS) was added to individual wells by using the Thermo Multidrop reagent dispenser again. Plates were shaken for 2 min and incubated for 10 min in the dark. Luminescent signals were read by using a Tecan Spark Multimode Microplate Reader. The values were normalized to the DMSO control wells and presented as a percentage of cell viability. Dose–response curves were drawn with GraphPad Prism 8.

PaTu8988T cells = experiment: CellTiter-Glo cell viability assay; conditions: Homo sapiens, PaTu 8988t, 72 h; treatment for 3 days
Description: as §1, §2

HDAC1 = HDAC1 (Homo sapiens, UniProt Q13547); experiment: NanoBRET target engagement assay (HEK293T); parameters: BRD4 bromodomains and full-length HDACs were obtained as plasmids cloned in-frame with a terminal NanoLuc fusion; host or cells: HEK293T
HDAC1, sequence (Q13547 whole entry, the tested form may be a part): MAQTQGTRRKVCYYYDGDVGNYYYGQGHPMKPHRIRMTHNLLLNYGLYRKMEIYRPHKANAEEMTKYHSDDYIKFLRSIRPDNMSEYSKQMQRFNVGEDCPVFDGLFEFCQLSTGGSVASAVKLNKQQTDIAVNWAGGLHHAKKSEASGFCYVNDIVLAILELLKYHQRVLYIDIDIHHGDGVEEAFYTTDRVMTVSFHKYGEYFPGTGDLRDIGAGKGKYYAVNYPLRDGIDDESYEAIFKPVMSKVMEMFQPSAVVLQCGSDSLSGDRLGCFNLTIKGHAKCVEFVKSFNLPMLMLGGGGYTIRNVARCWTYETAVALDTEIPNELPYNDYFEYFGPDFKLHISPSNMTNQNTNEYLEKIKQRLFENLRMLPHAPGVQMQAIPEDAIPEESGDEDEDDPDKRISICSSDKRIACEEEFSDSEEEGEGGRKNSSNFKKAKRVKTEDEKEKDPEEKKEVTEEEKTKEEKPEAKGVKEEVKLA
Description: (§3) The assay was performed as described previously.[17],[59] In brief, BRD4 bromodomains and full-length HDACs were obtained as plasmids cloned in-frame with a terminal NanoLuc fusion (Promega). Plasmids were transfected into HEK293T cells using FuGENE HD (Promega, E2312), and proteins were allowed to express for 20 h. […] The corresponding protein-transfected cells were added and reseeded at a density of 2 × 10^5 cells/mL after trypsinization and resuspended in Opti-MEM without phenol red (Life Technologies). The system was allowed to equilibrate for 2 h at 37 °C/5% CO2 prior to BRET measurements. […] For lysed-mode NanoBRET experiments, digitonin (Promega, #G9441) was added as per the manufacturer’s instructions to a final concentration of […].

HDAC2 = HDAC2 (Homo sapiens, UniProt Q92769); experiment: NanoBRET target engagement assay (HEK293T); parameters: BRD4 bromodomains and full-length HDACs were obtained as plasmids cloned in-frame with a terminal NanoLuc fusion; host or cells: HEK293T
HDAC2, sequence (Q92769 whole entry, the tested form may be a part): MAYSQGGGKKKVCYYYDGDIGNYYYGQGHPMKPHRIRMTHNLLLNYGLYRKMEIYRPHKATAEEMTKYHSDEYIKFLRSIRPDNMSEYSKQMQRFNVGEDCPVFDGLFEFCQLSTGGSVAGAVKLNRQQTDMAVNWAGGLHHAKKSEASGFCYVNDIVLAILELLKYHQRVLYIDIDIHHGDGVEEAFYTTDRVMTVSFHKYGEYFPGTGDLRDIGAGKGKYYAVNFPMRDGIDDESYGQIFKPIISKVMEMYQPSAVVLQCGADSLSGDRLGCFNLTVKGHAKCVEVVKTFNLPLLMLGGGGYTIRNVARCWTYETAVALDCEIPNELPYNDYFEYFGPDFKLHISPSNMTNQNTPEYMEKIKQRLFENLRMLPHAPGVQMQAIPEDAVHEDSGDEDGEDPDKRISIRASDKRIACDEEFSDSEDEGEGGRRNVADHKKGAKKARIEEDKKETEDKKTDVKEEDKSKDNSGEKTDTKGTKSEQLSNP
Description: as §3

HDAC3 = HDAC3 (Homo sapiens, UniProt O15379); experiment: NanoBRET target engagement assay (HEK293T); parameters: BRD4 bromodomains and full-length HDACs were obtained as plasmids cloned in-frame with a terminal NanoLuc fusion; host or cells: HEK293T; conditions: intact cells
HDAC3, sequence (O15379 whole entry, the tested form may be a part): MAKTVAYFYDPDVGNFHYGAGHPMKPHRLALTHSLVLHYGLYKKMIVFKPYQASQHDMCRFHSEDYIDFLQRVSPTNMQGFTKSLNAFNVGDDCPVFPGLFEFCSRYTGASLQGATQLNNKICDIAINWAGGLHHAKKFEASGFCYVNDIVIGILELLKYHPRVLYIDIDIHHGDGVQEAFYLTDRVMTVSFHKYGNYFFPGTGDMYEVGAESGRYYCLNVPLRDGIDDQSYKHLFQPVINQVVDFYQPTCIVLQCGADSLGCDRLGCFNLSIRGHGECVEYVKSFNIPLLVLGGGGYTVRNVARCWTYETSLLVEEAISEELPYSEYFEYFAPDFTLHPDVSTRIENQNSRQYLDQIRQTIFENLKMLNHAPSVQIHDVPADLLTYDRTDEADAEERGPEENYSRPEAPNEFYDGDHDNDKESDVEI
Description: as §3

[1] = tested on: histone H3 K9/K14 acetylation in PaTu8988T cells; experiment: Western blot of histone H3 K9/K14 acetylation; conditions: 48 h, 1 μM inhibitor or concentration series
Description: Protein samples were prepared in RIPA buffer (9806S, Cell Signaling Technology) containing a protease inhibitor cocktail (Roche). Proteins were separated in SDS-polyacrylamide gels, transferred to nitrocellulose membranes with a Trans-Blot Turbo Transfer System (Bio-Rad), and incubated with antibodies dissolved in TBS buffer containing 5% BSA and 0.1% Tween20. The following primary antibodies were used: rabbit anti-β-actin (ab8227, Abcam) and rabbit antiacetyl-histone H3 (Lys9/Lys14; 9677, Cell Signaling Technology). Primary antibodies were recognized by a peroxidase-coupled secondary antibody (Jackson), and signals were detected by chemiluminescence.

BRD4 BD1 = BRD4 BD1 (Homo sapiens, UniProt O60885); experiment: NanoBRET target engagement assay (HEK293T); parameters: BRD4 bromodomains and full-length HDACs were obtained as plasmids cloned in-frame with a terminal NanoLuc fusion; host or cells: HEK293T; conditions: intact cells
Description: (§4) The assay was performed as described previously.[17],[59] In brief, BRD4 bromodomains and full-length HDACs were obtained as plasmids cloned in-frame with a terminal NanoLuc fusion (Promega). Plasmids were transfected into HEK293T cells using FuGENE HD (Promega, E2312), and proteins were allowed to express for 20 h. Serially diluted inhibitor and the corresponding NanoBRET Tracer (Promega) at a concentration determined previously as the tracer KD, app were pipetted into white 384-well plates (Greiner #781207) for BRD assays or white 96-well plates (Corning #3600) for HDAC using an Echo acoustic dispenser (Labcyte). The corresponding protein-transfected cells were added and reseeded at a density of 2 × 10^5 cells/mL after trypsinization and resuspended in Opti-MEM without phenol red (Life Technologies). The system was allowed to equilibrate for 2 h at 37 °C/5% CO2 prior to BRET measurements. To measure BRET, NanoBRET NanoGlo substrate + Extracellular NanoLuc Inhibitor (Promega, N2540) was added as per the manufacturer’s protocol, and filtered luminescence was measured on a PHERAstar plate reader (BMG Labtech) equipped with a luminescence filter pair (450 nm BP filter (donor) and 610 nm LP filter (acceptor)). For lysed-mode NanoBRET experiments, digitonin (Promega, #G9441) was added as per the manufacturer’s instructions to a final concentration of […].

BRD4 BD2 = BRD4 BD2 (Homo sapiens, UniProt O60885); experiment: NanoBRET target engagement assay (HEK293T); parameters: BRD4 bromodomains and full-length HDACs were obtained as plasmids cloned in-frame with a terminal NanoLuc fusion; host or cells: HEK293T; conditions: intact cells
Description: as §4

Compound	IC50 (HCC2429 cells)	IC50 (PaTu8988T cells)	EC50 (HDAC1; intact cells)	EC50 (HDAC2; intact cells)	EC50 (HDAC3)	inhibition of histone H3 K9/K14 deacetylation (Western blot) [1]	EC50 (BRD4 BD1)	EC50 (BRD4 BD2)	EC50 (HDAC1; lysed-mode)	EC50 (HDAC2; lysed-mode)
Cn1cc(-c2ccc(C(=O)Nc3ccccc3N)cc2)c2cc[nH]c2c1=O [NB462]	400 ± 30 nM	2700 ± 300 nM	2600 ± 1100 nM	1600 ± 700 nM	32000 ± 16000 nM	significantly more potent than CI-944	250 ± 20 nM	190 ± 20 nM		
Cn1cc(-c2ccc(C(=O)Nc3ccccc3N)nc2)c2cc[nH]c2c1=O [NB500]	220 ± 20 nM	3200 ± 400 nM	4800 ± 2300 nM	2500 ± 700 nM	> 50000 nM	much less potent	240 ± 20 nM	160 ± 40 nM		
Cn1cc(-c2ccc(C(=O)Nc3cc(-c4ccccc4)ccc3N)cc2)c2cc[nH]c2c1=O [NB503]	630 ± 80 nM	2800 ± 200 nM	190 ± 30 nM	360 ± 120 nM	6500 ± 2800 nM	concentration-dependent	420 ± 110 nM	520 ± 180 nM		
Cn1cc(-c2ccc(C(=O)Nc3cc(-c4ccccc4)ccc3N)nc2)c2cc[nH]c2c1=O [NB512]	420 ± 50 nM	3600 ± 400 nM	110 ± 30 nM	98 nM and 100 nM	13600 ± 4800 nM	more potent inhibitor overall	360 ± 130 nM	250 ± 120 nM	27 nM	37 nM
